Assay results as given in patent US7452556B2, “Compositions for the treatment of pilosebaceous gland inflammations comprising aluminum fluoride” (Medidermis Ltd., priority 2001, dated 2008).

Legend:
[1] = cited from earlier work
[2] = system: Acne Vulgaris inflammatory lesion
Experimental: (§1) An Acne Vulgaris (FIGS. 1a, 1b and 1c) inflammatory lesion on the right cheek of a subject was treated by AIF trihydrate at 0.5% concentration dissolved in water only. The subject applied each 3-4 h the solution as a spray. Pictures were performed in a room with artificial constant light by a Sony Mavica FD95 digital camera at a resolution of 1600×1200 pixels.
(§2) Area of inflammation was measured by image analysis techniques as follows:
(§3) Pictures (FIGS. 1a, 1b and 1c) were saved as a BMP file and loaded into Scion Imaging software v. 4.02 (NIH, USA). All three pictures were concomitantly analyzed on the same frame. First, pictures in gray scale were smoothed, manually thresholded, turned into a binary picture and the results transformed to an outline filter. The area of each outlined papule was measured by the software (n=3) and data was further plotted and statistically analyzed by student's t-test in FIG. 2 (Sigmaplot, Jandel, Java).

[3] = system: Folliculitis inflammatory lesion
Experimental: as §1, with “A Folliculitis” for “An Acne Vulgaris”, “3a, 3b” for “1a, 1b”, “3c)” for “1c)”, “left posterior thigh […]” for “right cheek”
as §2
as §3, with “(FIGS. 3a, 3b” for “(FIGS. 1a, 1b”, “and 3c)” for “and 1c)”, “FIG. 4” for “FIG. 2”

[4] = 0.5% in water only, spray each 3-4 h, right cheek, subject, FIGS. 1a-1c
[5] = 0.5% in water only, spray each 3-4 h, left posterior thigh, subject, FIGS. 3a-3c

| Compound | incidence of severe side effects ([1]; oral, Strauss J S et al, J Am Acad Dermatol, 2001) [%] | side effect: dryness ([1]; systemic retinoid) [%] | side effect: hair loss ([1]; systemic retinoid) [%] | side effect: liver function disorder ([1]; systemic retinoid) [%] | side effect: musculo-skeletal pains ([1]; systemic retinoid) [%] | side effect: photosensitivity ([1]; systemic retinoid) [%] | final resolution of the papule, time [2, 4] [h] | rapid fading of the papule, time from start of treatment [2, 4] [h] | heals the inflamed papule within (area of lesion, image analysis) ([2]; FIG. 2, n=3 area measurements, p<0.01 at 14 h and at 26 h) | final resolution of the papule, time [3, 5] [h] | rapid fading of the papule, time from start of treatment [3, 5] [h] | heals the inflamed papule within (area of lesion, image analysis) ([3]; FIG. 4, n=3 area measurements, p<0.01 at 10 h and p<0.001 at 18 h) |
| --- | --- | --- | --- | --- | --- | --- | --- | --- | --- | --- | --- | --- |
| CC1=C(/C=C/C(C)=C/C=C/C(C)=C\C(=O)O)C(C)(C)CCC1 [isotretinoin] | 35 | 100 | 30 | 5 | 15 | 90 | – | – | – | – | – | – |
| Aluminum fluoride [AIF trihydrate] | – | – | – | – | – | – | 26 | 14 | about 24 h | 18 | 10 | about 18 h |
